Values after ≈ are worked out from the molar mass of the structure shown.
Legend:
Format in all cases: functional
[1] = test system: Fusarium verticillioides; assay: Antifungal activity against Fusarium verticillioides NCIM 1276 at 5 to 20 ug/ml after 24 hr by paper disk diffusion method
[2] = test system: Trichoderma; assay: Antifungal activity against Trichoderma sp. ATCC 5248 at 5 to 20 ug/ml after 24 hr by paper disk diffusion method
[3] = test system: Saccharomyces cerevisiae; assay: Antifungal activity against Saccharomyces cerevisiae 180 at 5 to 20 ug/ml after 24 hr by paper disk diffusion method
[4] = test system: Aspergillus niger; assay: Antifungal activity against Aspergillus niger ATCC 4578 at 5 to 20 ug/ml after 24 hr by paper disk diffusion method
[5] = test system: Fusarium verticillioides; assay: Antifungal activity against Fusarium verticillioides NCIM 1276 after 24 hr by paper disk diffusion method; conditions: NCIM 1276, 24 h
[6] = test system: Trichoderma; assay: Antifungal activity against Trichoderma sp. ATCC 5248 after 24 hr by paper disk diffusion method; conditions: ATCC 5248, 24 h
[7] = test system: Saccharomyces cerevisiae; assay: Antifungal activity against Saccharomyces cerevisiae 180 after 24 hr by paper disk diffusion method; conditions: Saccharomyces cerevisiae, 180, 24 h
[8] = test system: Aspergillus niger; assay: Antifungal activity against Aspergillus niger ATCC 4578 after 24 hr by paper disk diffusion method; conditions: ATCC 4578, 24 h
[9] = test system: Pseudomonas fluorescens; assay: Antibacterial activity against Pseudomonas fluorescens ATCC 3458 5 to 20 ug/ml after 24 hr by paper disk diffusion method
[10] = test system: Pseudomonas aeruginosa; assay: Antibacterial activity against Pseudomonas aeruginosa MTCC 3363 5 to 20 ug/ml after 24 hr by paper disk diffusion method
[11] = test system: Bacillus subtilis; assay: Antibacterial activity against Bacillus subtilis ATCC 6633 5 to 20 ug/ml after 24 hr by paper disk diffusion method
[12] = test system: Escherichia coli; assay: Antibacterial activity against Escherichia coli DH5[alpha] at 5 to 20 ug/ml after 24 hr by paper disk diffusion method
[13] = test system: Pseudomonas fluorescens; assay: Antibacterial activity against Pseudomonas fluorescens ATCC 3458 after 24 hr by paper disk diffusion method; conditions: ATCC 3458, 24 h
[14] = test system: Pseudomonas aeruginosa; assay: Antibacterial activity against Pseudomonas aeruginosa MTCC 3363 after 24 hr by paper disk diffusion method; conditions: MTCC 3363, 24 h
[15] = test system: Bacillus subtilis; assay: Antibacterial activity against Bacillus subtilis ATCC 6633 after 24 hr by paper disk diffusion method; conditions: ATCC 6633, 24 h
[16] = test system: Escherichia coli; assay: Antibacterial activity against Escherichia coli DH5[alpha] after 24 hr by paper disk diffusion method

Compound | MIC [5] | MIC [6] | MIC [7] | MIC [8] | MIC [13] | MIC [14] | MIC [15] | MIC [16] | diameter of the inhibition zone (DIZ) [1] | diameter of the inhibition zone (DIZ) [2] | diameter of the inhibition zone (DIZ) [3] | diameter of the inhibition zone (DIZ) [4] | diameter of the inhibition zone (DIZ) [9] | diameter of the inhibition zone (DIZ) [10] | diameter of the inhibition zone (DIZ) [11] | diameter of the inhibition zone (DIZ) [12]
Nn1c(S)nnc1-c1ccccc1 | 12.5 µg/mL (≈ 65 µM) | 12.5 µg/mL (≈ 65 µM) | 12.5 µg/mL (≈ 65 µM) | 12.5 µg/mL (≈ 65 µM) | 12.5 µg/mL (≈ 65 µM) | 12.5 µg/mL (≈ 65 µM) | 12.5 µg/mL (≈ 65 µM) | 12.5 µg/mL (≈ 65 µM) | 16 mm | 16 mm | 16 mm | 16 mm | 16 mm | 16 mm | 16 mm | 16 mm
Nn1c(Sc2ccc(C(Cl)(Cl)Cl)cc2)nnc1-c1ccccc1 | 5 µg/mL (≈ 13 µM) | 5 µg/mL (≈ 13 µM) | 5 µg/mL (≈ 13 µM) | 5 µg/mL (≈ 13 µM) | 5 µg/mL (≈ 13 µM) | 5 µg/mL (≈ 13 µM) | 5 µg/mL (≈ 13 µM) | 5 µg/mL (≈ 13 µM) | 18 mm | 22 mm | 16 mm | 14 mm | 14 mm | 16 mm | 14 mm | 14 mm
CC(=O)Nn1c(S)nnc1-c1ccccc1 | 15 µg/mL (≈ 64 µM) | 15 µg/mL (≈ 64 µM) | 15 µg/mL (≈ 64 µM) | 15 µg/mL (≈ 64 µM) | 15 µg/mL (≈ 64 µM) | 15 µg/mL (≈ 64 µM) | 15 µg/mL (≈ 64 µM) | 15 µg/mL (≈ 64 µM) | <12 mm | <12 mm | <12 mm | <12 mm | <10 mm | <10 mm | <10 mm | <10 mm
CO/N=C(\C(=O)N[C@@H]1C(=O)N2C(C(=O)O)=C(CSc3nc(=O)c(O)nn3C)CS[C@H]12)c1csc(N)n1 [CEFTRIAXONE] | – | – | – | – | 5 µg/mL (≈ 9.02 µM) | 5 µg/mL (≈ 9.02 µM) | 5 µg/mL (≈ 9.02 µM) | 5 µg/mL (≈ 9.02 µM) | – | – | – | – | 16 mm | 18 mm | 16 mm | 16 mm
CC(=O)N1CCN(c2ccc(OCC3COC(Cn4ccnc4)(c4ccc(Cl)cc4Cl)O3)cc2)CC1 (centres undefined) [KETOCONAZOLE] | 5 µg/mL (≈ 9.41 µM) | 5 µg/mL (≈ 9.41 µM) | 5 µg/mL (≈ 9.41 µM) | 5 µg/mL (≈ 9.41 µM) | – | – | – | – | 20 mm | 25 mm | 18 mm | 16 mm | – | – | – | –

Second part, led by results:

MIC [5] | MIC [6] | MIC [7] | MIC [8] | MIC [13] | MIC [14] | MIC [15] | MIC [16] | Compound | diameter of the inhibition zone (DIZ) [1] | diameter of the inhibition zone (DIZ) [2] | diameter of the inhibition zone (DIZ) [3] | diameter of the inhibition zone (DIZ) [4] | diameter of the inhibition zone (DIZ) [9] | diameter of the inhibition zone (DIZ) [10] | diameter of the inhibition zone (DIZ) [11] | diameter of the inhibition zone (DIZ) [12]
15 µg/mL (≈ 40.9 µM) | 15 µg/mL (≈ 40.9 µM) | 15 µg/mL (≈ 40.9 µM) | 15 µg/mL (≈ 40.9 µM) | 15 µg/mL (≈ 40.9 µM) | 15 µg/mL (≈ 40.9 µM) | 15 µg/mL (≈ 40.9 µM) | 15 µg/mL (≈ 40.9 µM) | Nn1c(Sc2ccc(S(=O)(=O)Cl)cc2)nnc1-c1ccccc1 | <12 mm | <12 mm | <12 mm | <12 mm | <10 mm | <10 mm | <10 mm | <10 mm
10 µg/mL (≈ 28.8 µM) | 10 µg/mL (≈ 28.8 µM) | 10 µg/mL (≈ 28.8 µM) | 10 µg/mL (≈ 28.8 µM) | 10 µg/mL (≈ 28.8 µM) | 10 µg/mL (≈ 28.8 µM) | 10 µg/mL (≈ 28.8 µM) | 10 µg/mL (≈ 28.8 µM) | Nn1c(Sc2ccc(Br)cc2)nnc1-c1ccccc1 | 16 mm | 16 mm | 16 mm | 16 mm | 16 mm | 16 mm | 16 mm | 16 mm
10 µg/mL (≈ 33 µM) | 10 µg/mL (≈ 33 µM) | 10 µg/mL (≈ 33 µM) | 10 µg/mL (≈ 33 µM) | 10 µg/mL (≈ 33 µM) | 10 µg/mL (≈ 33 µM) | 10 µg/mL (≈ 33 µM) | 10 µg/mL (≈ 33 µM) | Nn1c(Sc2ccc(Cl)cc2)nnc1-c1ccccc1 | 16 mm | 16 mm | 16 mm | 16 mm | 16 mm | 16 mm | 16 mm | 16 mm
12.5 µg/mL (≈ 60 µM) | 12.5 µg/mL (≈ 60 µM) | 12.5 µg/mL (≈ 60 µM) | 12.5 µg/mL (≈ 60 µM) | 12.5 µg/mL (≈ 60 µM) | 12.5 µg/mL (≈ 60 µM) | 12.5 µg/mL (≈ 60 µM) | 12.5 µg/mL (≈ 60 µM) | Nn1c(S)nnc1-c1ccccc1O | 16 mm | 16 mm | 16 mm | 16 mm | 16 mm | 16 mm | 16 mm | 16 mm
15 µg/mL (≈ 41.9 µM) | 15 µg/mL (≈ 41.9 µM) | 15 µg/mL (≈ 41.9 µM) | 15 µg/mL (≈ 41.9 µM) | 15 µg/mL (≈ 41.9 µM) | 15 µg/mL (≈ 41.9 µM) | 15 µg/mL (≈ 41.9 µM) | 15 µg/mL (≈ 41.9 µM) | Nn1c(Sc2ccc([N+](=O)[O-])cc2[N+](=O)[O-])nnc1-c1ccccc1 | <12 mm | <12 mm | <12 mm | <12 mm | <10 mm | <10 mm | <10 mm | <10 mm

Reference: ChEMBL document CHEMBL3045378, “Synthesis and evaluation of 4-amino-5-phenyl-4H-[1,2,4]-triazole-3-thiol derivatives as antimicrobial agents” (2010)
